Measurements published in patent US20260001854A1, “CONJUGATE COMPOUND COMPRISING 13-CIS-RETINOIC ACID AND ASCORBIC ACID” (Mastery Biotech CO., LTD., priority 2023, published 2026).

Experiments:
[1] = MTT cell viability (cytotoxicity) assay, A549; type: cell-based, human; details: human, A549 cells
Procedure: (§1) Cells were cultured in indicated growth medium with 10% FBS and were maintained in a humidified incubator at 37° C. containing 5% CO2. Formula A2 compound was weighted and dissolved in DMSO/EtOH mixture solvent of 1/4 (v/v) ratio to a final concentration of 200 mM at the day of treatment. One day before treatment, cells at log-phase of growth were harvested, counted, and seeded in a 96-well plate at a density of 5×10^3 cells/[…]/well. After cultivation overnight, assumed wells were gently added with […] of fresh media prepared with the serial concentration from 40 to 1000 μM to bring the working concentration from 20 to 500 μM subsequently. The control plate without Formula A2 was carried out as the same procedure as above but […] of fresh media prepared with the equal solvent volume added. All plates were mixed gently and incubated for next 24 hours.
(§2) At the day of cell viability detection, tested wells were added […] of MTT working solution and incubated at 37° C. for 3 hours. Spectrophotometric absorbance readings were recorded at wavelength of 540 nm. Readings from blank wells (wells contains only cell culture medium without cells) and negative control wells (wells with cell and culture medium without Formula A2 and solvent treatment) were recorded and used for calibration. After all readings of OD540 subtracted the blank value, the percentage of cell viability were calculated using the following formula: […]
(§3) The concentration of Compound A that inhibited cell survival to 50% (IC50) was determined by an online tool “Quest Graph™ IC50 Calculator.” AAT Bioquest, Inc., 26 June. 2024, www.aatbio.com/tools/ic50-calculator.

A549 = assay: MTT cell viability (cytotoxicity) assay, A549; type: cell-based, human; details: Homo sapiens; A549 cell line, estimated from cell viability values with Quest Graph IC50 Calculator; read-out: IC50 (concentration that inhibited cell survival to 50%)
Procedure: as §1, §2, §3

[2] = MTT cell viability (cytotoxicity) assay, A549; type: cell-based; details: human, A549 cells
[3] = MTT cell viability (cytotoxicity) assay, Caco-2; type: cell-based; details: human, mean of 6 wells
Procedure: as §1, §2, §3

[4] = MTT cell viability (cytotoxicity) assay, PANC-1; type: cell-based; details: human, PANC-1 cells, mean of 6 wells
Procedure: as §1, §2, §3

`CC1=C(/C=C/C(C)=C/C=C/C(C)=C\C(=O)O)C(C)(C)CCC1` [13-cis retinoic acid, (2Z,4E,6E,8E)-3,7-dimethyl-9-(2,6,6-trimethylcyclohex-1-en-1-yl)nona-2,4,6,8-tetraenoic acid, reference compound] showed a viability at 24 h, 30 μM ([1]; 13-cis RA 30 μM) of 75%, a viability at 24 h, 60 μM ([1]; 13-cis RA 60 μM) of 73% and a viability at 24 h, 120 μM ([1]; 13-cis RA 120 μM) of 57%. It also gave a viability at 24 h, 240 μM ([1]; 13-cis RA 240 μM) of 50%, a viability at 24 h, 480 μM ([1]; 13-cis RA 480 μM) of 50% and an IC50 (A549) of 518 µM. For the same compound, the viability at 24 h, 7.5 μM ([2]; 13-cis RA 7.5 μM) was 95%, the viability at 24 h, 15 μM ([2]; 13-cis RA 15 μM) was 78% and the viability at 24 h, 960 μM ([2]; 13-cis RA 960 μM) was 51%.

In the case of `CC1=C(/C=C/C(C)=C/C=C/C(C)=C\C(=O)OC2=C(O)[C@@H]([C@@H](O)CO)OC2=O)C(C)(C)CCC1` [Formula A1], the viability at 24 h, 20 μM ([1]; Formula A1 20 μM, 24 hours, MTT, mean of 6 wells) is reported as 102%, the viability at 24 h, 100 μM ([1]; Formula A1 100 μM, 24 hours, MTT, mean of 6 wells) is reported as 100% and the viability at 24 h, 150 μM ([1]; Formula A1 150 μM, 24 hours, MTT, mean of 6 wells) is reported as 80%. The viability at 24 h, 180 μM ([1]; Formula A1 180 μM, 24 hours, MTT, mean of 6 wells) was 29%, the viability at 24 h, 230 μM ([1]; Formula A1 230 μM, 24 hours, MTT, mean of 6 wells) was 63% and the viability at 24 h, 253 μM ([1]; Formula A1 253 μM, 24 hours, MTT, mean of 6 wells) was 28%. For the same compound, the viability at 24 h, 500 µM ([1]; Formula A1 500 μM, 24 hours, MTT, mean of 6 wells) was 11%, the IC50 (A549) was 197 µM and the viability at 24 h, 200 µM ([3]; 200 μM) was 91%. For the same compound, the viability at 24 h, 300 µM ([3]; 300 μM) was 58%, the viability at 24 h, 400 µM ([3]; 400 μM) was 33% and the viability at 24 h, 500 µM ([3]; 500 μM) was 24%. For the same compound, the viability at 24 h, 50 μM ([2]; Formula A1 50 μM, 24 hours, MTT, mean of 6 wells) was 94%, the viability at 24 h, 20 μM ([4]; 20 μM) was 69% and the viability at 24 h, 50 μM ([4]; 50 μM) was 69%. The viability at 24 h, 100 μM ([4]; 100 μM) was 54%, the viability at 24 h, 150 μM ([4]; 150 μM) was 50% and the viability at 24 h, 180 μM ([4]; 180 μM) was 16%. For the same compound, the viability at 24 h, 230 μM ([4]; 230 μM) was 17%, the viability at 24 h, 253 μM ([4]; 253 μM) was 19% and the viability at 24 h, 500 µM ([4]; 500 μM) was 22%.
